Measured values taken from patent publication US11214594B2, “Antimicrobial peptide having synergistic antibacterial effect with antibiotics on multidrug resistant bacteria, and use thereof” (priority 2016, dated 2022).
In brackets after ≈: the same amount, converted by molar mass. Where a SMILES comes first, the peptide text is derived from it.

Columns and labels:
MDREC 1229 = test: MIC of antibiotic during combined treatment with antimicrobial peptide; format: cell-based, Escherichia coli
Experimental: Specifically, the strains described in [Table 2] were prepared and diluted with an MH medium such that the number of bacteria was 2×10^6 colony-forming units (CFUs) per 1 ml, 100 μl of the diluted strains was each aliquoted into a 96-well microtiter plate, and then 50 μl of a peptide solution diluted with the MH medium from the MIC value (solution diluted stepwise at 2: 1) was added to each well. Thereafter, the MIC value of each mixed solution was determined by diluting the antibiotic solution with the MH medium, adding 50 μl of the diluted solution to each well, and performing an experiment even under a reversed condition.

S. typhimurium = test: microbe, parasite or virus in culture; format: cell-based, Salmonella typhimurium
Procedure, shortened: (§1)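 Broth microdilution in MH medium: bacterial strains diluted to 2×10^6 CFU were mixed with equal volumes of peptide serially diluted twofold in MH medium.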

A. baumannii [1] = test: MIC of antibiotic during combined treatment with antimicrobial peptide; format: cell-based, Acinetobacter baumannii; settings: for Synergistic effect of antibacterial activity with existing antibiotics compared with PapMA-1: A. baumannii and MDRAB 12035; for Antibiotic MIC, Erythromycin / Antibiotic MIC, Linezolid / Antibiotic MIC, Vancomycin: A. baumannii
Experimental: Thereafter, the MIC value of each mixed solution was determined by diluting the antibiotic solution with the MH medium, adding 50 μl of the diluted solution to each well, and performing an experiment even under a reversed condition.

A. baumannii [2] = test: microbe, parasite or virus in culture; format: cell-based, Acinetobacter baumannii
Procedure, shortened: as §1

MDRAB 12035 = test: microbe, parasite or virus in culture; format: cell-based, Acinetobacter baumannii
Procedure, shortened: as §1

S. aureus = test: microbe, parasite or virus in culture; format: cell-based, Staphylococcus aureus
Procedure, shortened: as §1

[3] = peptide treatment concentration 1 μg/ml
[4] = peptide treatment concentration 2 μg/ml
[5] = peptide treatment concentration 4 μg/ml
[6] = peptide treatment concentration 6 μg/ml
[7] = peptide treatment concentration 8 μg/ml
[8] = peptide treatment concentration 16 μg/ml
[9] = peptide treatment concentration 32 μg/ml
[10] = peptide treatment concentration 64 μg/ml
[11] = combined with peptide at 1 μg/ml
[12] = combined with peptide at 2 μg/ml
[13] = combined with peptide at 4 μg/ml
[14] = combined with peptide at 6 μg/ml
[15] = combined with peptide at 8 μg/ml
[16] = combined with peptide at 16 μg/ml
[17] = combined with peptide at 32 μg/ml
[18] = combined with peptide at 64 μg/ml

SMILES: CC[C@H](C)[C@H](NC(=O)[C@H](CCCCN)NC(=O)[C@H](Cc1c[nH]c2ccccc12)NC(=O)[C@@H](N)CCCNC(=N)N)C(=O)N[C@@H](Cc1ccccc1)C(=O)N[C@@H](CCCCN)C(=O)N[C@@H](CCCCN)C(=O)N[C@H](C(=O)N1CCC[C@H]1C(=O)N[C@@H](CCCCN)C(=O)N[C@@H](Cc1ccccc1)C(=O)N[C@@H](CC(C)C)C(=O)N[C@@H](Cc1c[nH]cn1)C(=O)N[C@@H](CCC(=O)O)C(=O)N[C@@H](C)C(=O)N[C@@H](CCCCN)C(=O)N[C@@H](CCCCN)C(=O)N[C@@H](Cc1ccccc1)C(N)=O)[C@@H](C)CC [PapMA-11, RWK IFK KIP KFL HEA KKF-NH2] (H-RWKIFKKIPKFLHEAKKF-NH2; N-terminus assumed)
- Antibiotic MIC, Erythromycin (MDREC 1229; [3]): 128 µg/mL
- Antibiotic MIC, Linezolid (MDREC 1229; [3]): >128 µg/mL
- Antibiotic MIC, Vancomycin (MDREC 1229; [3]): >128 µg/mL
- Antibiotic MIC, Erythromycin (MDREC 1229; [4]): 64 µg/mL
- Antibiotic MIC, Linezolid (MDREC 1229; [4]): >128 µg/mL
- Antibiotic MIC, Vancomycin (MDREC 1229; [4]): >128 µg/mL
- Antibiotic MIC, Erythromycin (MDREC 1229; [5]): 16 µg/mL
- Antibiotic MIC, Linezolid (MDREC 1229; [5]): 128 µg/mL
- Antibiotic MIC, Vancomycin (MDREC 1229; [5]): >128 µg/mL
- Antibiotic MIC, Erythromycin (MDREC 1229; [6]): 8 µg/mL
- Antibiotic MIC, Linezolid (MDREC 1229; [6]): 128 µg/mL
- Antibiotic MIC, Vancomycin (MDREC 1229; [6]): >128 µg/mL
- Antibiotic MIC, Erythromycin (MDREC 1229; [7]): 4 µg/mL
- Antibiotic MIC, Linezolid (MDREC 1229; [7]): 32 µg/mL
- Antibiotic MIC, Vancomycin (MDREC 1229; [7]): 128 µg/mL
- Antibiotic MIC, Erythromycin (MDREC 1229; [8]): 1 µg/mL
- Antibiotic MIC, Linezolid (MDREC 1229; [8]): 16 µg/mL
- Antibiotic MIC, Vancomycin (MDREC 1229; [8]): 16 µg/mL
- Antibiotic MIC, Erythromycin (MDREC 1229; [9]): 0.5 µg/mL
- Antibiotic MIC, Linezolid (MDREC 1229; [9]): 8 µg/mL
- Antibiotic MIC, Vancomycin (MDREC 1229; [9]): 8 µg/mL
- Antibiotic MIC, Erythromycin (MDREC 1229; [10]): 0 µg/mL
- Antibiotic MIC, Linezolid (MDREC 1229; [10]): 0 µg/mL
- Antibiotic MIC, Vancomycin (MDREC 1229; [10]): 0 µg/mL
- Minimal inhibitory concentration MIC (S. typhimurium): 64 µg/mL (≈ 27.3 µM)
- Synergistic effect of antibacterial activity with existing antibiotics compared with PapMA-1 (A. baumannii [1]): level similar to that of PapMA-1 peptide
- Antibiotic MIC, Erythromycin (A. baumannii [1]; [11]): 32 µg/mL
- Antibiotic MIC, Linezolid (A. baumannii [1]; [11]): 128 µg/mL
- Antibiotic MIC, Vancomycin (A. baumannii [1]; [11]): >128 µg/mL
- Antibiotic MIC, Erythromycin (A. baumannii [1]; [12]): 16 µg/mL
- Antibiotic MIC, Linezolid (A. baumannii [1]; [12]): 128 µg/mL
- Antibiotic MIC, Vancomycin (A. baumannii [1]; [12]): 128 µg/mL
- Antibiotic MIC, Erythromycin (A. baumannii [1]; [13]): 4 µg/mL
- Antibiotic MIC, Linezolid (A. baumannii [1]; [13]): 64 µg/mL
- Antibiotic MIC, Vancomycin (A. baumannii [1]; [13]): 32 µg/mL
- Antibiotic MIC, Erythromycin (A. baumannii [1]; [14]): 1 µg/mL
- Antibiotic MIC, Linezolid (A. baumannii [1]; [14]): 32 µg/mL
- Antibiotic MIC, Vancomycin (A. baumannii [1]; [14]): 16 µg/mL
- Antibiotic MIC, Erythromycin (A. baumannii [1]; [15]): 0.5 µg/mL
- Antibiotic MIC, Linezolid (A. baumannii [1]; [15]): 16 µg/mL
- Antibiotic MIC, Vancomycin (A. baumannii [1]; [15]): 8 µg/mL
- Antibiotic MIC, Erythromycin (A. baumannii [1]; [16]): 0.25 µg/mL
- Antibiotic MIC, Linezolid (A. baumannii [1]; [16]): 8 µg/mL
- Antibiotic MIC, Vancomycin (A. baumannii [1]; [16]): 4 µg/mL
- Antibiotic MIC, Erythromycin (A. baumannii [1]; [17]): 0.125 µg/mL
- Antibiotic MIC, Linezolid (A. baumannii [1]; [17]): 2 µg/mL
- Antibiotic MIC, Vancomycin (A. baumannii [1]; [17]): 1 µg/mL
- Antibiotic MIC, Erythromycin (A. baumannii [1]; [18]): 0 µg/mL
- Antibiotic MIC, Linezolid (A. baumannii [1]; [18]): 0 µg/mL
- Antibiotic MIC, Vancomycin (A. baumannii [1]; [18]): 0 µg/mL
- Minimal inhibitory concentration MIC (A. baumannii [2]): 64 µg/mL (≈ 27.3 µM)
- Peptide MIC, peptide alone (A. baumannii [2]): 64 µg/mL
- Minimal inhibitory concentration MIC (MDRAB 12035): 64 µg/mL (≈ 27.3 µM)
- Peptide MIC, peptide alone (MDRAB 12035): 64 µg/mL
- Minimal inhibitory concentration MIC (S. aureus): >128 µg/mL

SMILES: CC[C@H](C)[C@H](NC(=O)[C@H](CCCCN)NC(=O)[C@H](Cc1c[nH]c2ccccc12)NC(=O)[C@@H](N)CCCNC(=N)N)C(=O)N[C@@H](Cc1ccccc1)C(=O)N[C@@H](CCCCN)C(=O)N[C@@H](CCCCN)C(=O)N[C@H](C(=O)N1CCC[C@H]1C(=O)N[C@@H](CCCCN)C(=O)N[C@@H](Cc1ccccc1)C(=O)N[C@@H](CC(C)C)C(=O)N[C@@H](Cc1c[nH]cn1)C(=O)N[C@@H](CO)C(=O)N[C@@H](CC(C)C)C(=O)N[C@@H](CCCCN)C(=O)N[C@@H](CCCCN)C(=O)N[C@@H](Cc1ccccc1)C(N)=O)[C@@H](C)CC [PapMA-6, RWK IFK KIP KFL HSL KKF-NH2] (H-RWKIFKKIPKFLHSLKKF-NH2; N-terminus assumed)
- Antibiotic MIC, Erythromycin (MDREC 1229; [3]): 64 µg/mL
- Antibiotic MIC, Linezolid (MDREC 1229; [3]): 128 µg/mL
- Antibiotic MIC, Vancomycin (MDREC 1229; [3]): >128 µg/mL
- Antibiotic MIC, Erythromycin (MDREC 1229; [4]): 32 µg/mL
- Antibiotic MIC, Linezolid (MDREC 1229; [4]): 64 µg/mL
- Antibiotic MIC, Vancomycin (MDREC 1229; [4]): >128 µg/mL
- Antibiotic MIC, Erythromycin (MDREC 1229; [5]): 8 µg/mL
- Antibiotic MIC, Linezolid (MDREC 1229; [5]): 32 µg/mL
- Antibiotic MIC, Vancomycin (MDREC 1229; [5]): >128 µg/mL
- Antibiotic MIC, Erythromycin (MDREC 1229; [6]): 2 µg/mL
- Antibiotic MIC, Linezolid (MDREC 1229; [6]): 8 µg/mL
- Antibiotic MIC, Vancomycin (MDREC 1229; [6]): 64 µg/mL
- Antibiotic MIC, Erythromycin (MDREC 1229; [7]): 1 µg/mL
- Antibiotic MIC, Linezolid (MDREC 1229; [7]): 8 µg/mL
- Antibiotic MIC, Vancomycin (MDREC 1229; [7]): 16 µg/mL
- Antibiotic MIC, Erythromycin (MDREC 1229; [8]): 0.25 µg/mL
- Antibiotic MIC, Linezolid (MDREC 1229; [8]): 4 µg/mL
- Antibiotic MIC, Vancomycin (MDREC 1229; [8]): 4 µg/mL
- Antibiotic MIC, Erythromycin (MDREC 1229; [9]): 0.125 µg/mL
- Antibiotic MIC, Linezolid (MDREC 1229; [9]): 1 µg/mL
- Antibiotic MIC, Vancomycin (MDREC 1229; [9]): 2 µg/mL
- Antibiotic MIC, Erythromycin (MDREC 1229; [10]): 0 µg/mL
- Antibiotic MIC, Linezolid (MDREC 1229; [10]): 0 µg/mL
- Antibiotic MIC, Vancomycin (MDREC 1229; [10]): 0 µg/mL
- Minimal inhibitory concentration MIC (S. typhimurium): 16 µg/mL (≈ 6.83 µM)
- Synergistic effect of antibacterial activity with existing antibiotics compared with PapMA-1 (A. baumannii [1]): higher level than the PapMA-1 peptide
- Antibiotic MIC, Erythromycin (A. baumannii [1]; [11]): 16 µg/mL
- Antibiotic MIC, Linezolid (A. baumannii [1]; [11]): 128 µg/mL
- Antibiotic MIC, Vancomycin (A. baumannii [1]; [11]): >128 µg/mL
- Antibiotic MIC, Erythromycin (A. baumannii [1]; [12]): 8 µg/mL
- Antibiotic MIC, Linezolid (A. baumannii [1]; [12]): 64 µg/mL
- Antibiotic MIC, Vancomycin (A. baumannii [1]; [12]): 128 µg/mL
- Antibiotic MIC, Erythromycin (A. baumannii [1]; [13]): 4 µg/mL
- Antibiotic MIC, Linezolid (A. baumannii [1]; [13]): 8 µg/mL
- Antibiotic MIC, Vancomycin (A. baumannii [1]; [13]): 16 µg/mL
- Antibiotic MIC, Erythromycin (A. baumannii [1]; [14]): 2 µg/mL
- Antibiotic MIC, Linezolid (A. baumannii [1]; [14]): 4 µg/mL
- Antibiotic MIC, Vancomycin (A. baumannii [1]; [14]): 8 µg/mL
- Antibiotic MIC, Erythromycin (A. baumannii [1]; [15]): 0.125 µg/mL
- Antibiotic MIC, Linezolid (A. baumannii [1]; [15]): 2 µg/mL
- Antibiotic MIC, Vancomycin (A. baumannii [1]; [15]): 4 µg/mL
- Antibiotic MIC, Erythromycin (A. baumannii [1]; [16]): 0.0625 µg/mL
- Antibiotic MIC, Linezolid (A. baumannii [1]; [16]): 0.5 µg/mL
- Antibiotic MIC, Vancomycin (A. baumannii [1]; [16]): 2 µg/mL
- Antibiotic MIC, Erythromycin (A. baumannii [1]; [17]): 0 µg/mL
- Antibiotic MIC, Linezolid (A. baumannii [1]; [17]): 0 µg/mL
- Antibiotic MIC, Vancomycin (A. baumannii [1]; [17]): 0 µg/mL
- Antibiotic MIC, Erythromycin (A. baumannii [1]; [18]): 0 µg/mL
- Antibiotic MIC, Linezolid (A. baumannii [1]; [18]): 0 µg/mL
- Antibiotic MIC, Vancomycin (A. baumannii [1]; [18]): 0 µg/mL
- Minimal inhibitory concentration MIC (A. baumannii [2]): 32 µg/mL (≈ 13.7 µM)
- Peptide MIC, peptide alone (A. baumannii [2]): 32 µg/mL
- Minimal inhibitory concentration MIC (MDRAB 12035): 64 µg/mL (≈ 27.3 µM)
- Peptide MIC, peptide alone (MDRAB 12035): 64 µg/mL
- Minimal inhibitory concentration MIC (S. aureus): >128 µg/mL
